This is an account of results in patent US9345793B2, “Compounds for binding to the platelet specific glycoprotein IIB/IIIA and their use for imaging of thrombi” (PIRAMAL IMAGING SA, priority 2011, dated 2016).

For the test, the target named is human GPIIb/IIIa receptor (Homo sapiens (Human), UniProt P05106+P08514). Briefly: Affinity assay: displacement of tritiated reference compound from immobilized purified GPIIb/IIIa. In kind it is binding. The procedure:
Affinity assay: In the first step human GPIIb/IIIa purified from human platelets was immobilized on a 96-well solid plate. After 48 hours the plates were washed and the unspecific binding sites were blocked with Roti®-Block. 2. In the next step, the plates were simultaneously incubated with a tritium labeled known GPIIb/IIIa binder (^3H) mixed with increasing concentrations of the novel small molecule compounds (inhibitor, ^19F). The higher the affinity of the inhibitor, the lower the bound fraction of the tritiated known GPIIb/IIIa binder (^3H) was. The fraction of tritiated compound (^3H), which is not displaced by inhibitor, was measured in a microplate scintillation counter.
Purified human glycoprotein IIb/IIIa (20 mM Tris-HCl, 0.1 M NaCl, 0.1% Triton X-100, 1 mM CaCl2, 0.05% NaN3, 50% Glycerol, pH 7.4) was purchased from Enzyme Research Laboratories Inc. (South Bend, Ind.). The GPIIb/IIIa receptor was diluted in phosphate-buffered saline (Dulbecco's Phosphate Buffered Saline (D-PBS(+)) with calcium and magnesium, GIBCO®, Invitrogen) with 0.01% bovine serum albumin (albumin from bovine serum—lyophilized powder, ≧96%, Sigma).
The GPIIb/IIIa receptor was immobilized 48 hours at least (100 μL per well, 48 to maximum 96 hours) on a 96-well solid plate (Immuno Plate MaxiSorp™, Nunc, Roskilde, Denmark) at 277 K to 280 K and at a concentration of 0.1 μg per well to 1 μg per well. As negative control one row of the plate (n=8) was incubated just with 2% bovine serum albumin (200 μper well, albumin from bovine serum—lyophilized powder, […], Sigma, diluted in D-PBS(+)). After washing three times with the wash buffer (230 μL per well, Dulbecco's Phosphate Buffered Saline (D-PBS (−)) contains no calcium or magnesium, GIBCO®, Invitrogen) residual exposed plastic and unspecific binding sites were blocked by incubating the plate with a special blocking solution (200 μL per well, Roti®-Block, Carl Roth GmbH Co KG, Karlsruhe) containing 2% bovine serum albumin (Albumin from bovine serum—lyophilized powder, ≧96%, Sigma) 1 hour at room temperature.
After washing three times with the wash buffer 50 μL of tritiated reference compound (60 nM, ^3H-labeled compound) and 50 μL of novel compound (inhibitor, ^19F) were simultaneously added to each well and incubated for 1 hour at room temperature. Several concentrations of each novel inhibitor (0.1, 1, 2, 5, 10, 20 50, 100, 200, 500, 1000, 2000, 5000, 10000 and 20000 nM) were investigated. At each concentration of inhibitor a fourfold determination was performed.
The maximum value of tritiated reference compound was determined without addition of inhibitor (n=8). To exclude unspecific binding of ^3H-reference compound wells without glycoprotein receptors were used as negative controls (n=12, identically treated just without GP IIb/IIIa receptors).
After one hour the plate was washed three times with phosphate-buffered saline (200 μL per well, Dulbecco's Phosphate Buffered Saline (D-PBS(+)), GIBCO®, Invitrogen). Following 140 μL of liquid scintillation cocktail (MicroScint™ 40 aqueous, Perkin Elmer) was added to each well. After 15 min at room temperature the plates were measured at the microplate scintillation counter (TopCount NXT v2.13, Perkin Elmer, Packard Instrument Company).
In the first step human glycoprotein IIb/IIIa, which is purified from human platelets, was immobilized on a 96-well solid plate. After 48 hours at least the plates were washed and the unspecific binding sites were blocked with Roti®-Block. In the next step, the plates were simultaneously incubated with a tritium labeled reference compound and the novel small molecule compound (inhibitor). The higher the affinity of the inhibitor, the smaller is the bound fraction of reference compound. The fraction of tritiated reference compound, which is not displaced by inhibitor, was measured at a microplate scintillation counter.

[1] abbreviates: 19F compounds vs 60 nM 3H-labeled reference compound, 1 hour at room temperature, read-out: IC50 human.
The mark [2] stands for this setting: values repeated beside the 18F-compound, read-out: IC50 human (corresponding 19F-compound, Table 2).

Read-outs that look alike come from different tables or passages of the source.

Chain of human GPIIb/IIIa receptor (P08514 32-887): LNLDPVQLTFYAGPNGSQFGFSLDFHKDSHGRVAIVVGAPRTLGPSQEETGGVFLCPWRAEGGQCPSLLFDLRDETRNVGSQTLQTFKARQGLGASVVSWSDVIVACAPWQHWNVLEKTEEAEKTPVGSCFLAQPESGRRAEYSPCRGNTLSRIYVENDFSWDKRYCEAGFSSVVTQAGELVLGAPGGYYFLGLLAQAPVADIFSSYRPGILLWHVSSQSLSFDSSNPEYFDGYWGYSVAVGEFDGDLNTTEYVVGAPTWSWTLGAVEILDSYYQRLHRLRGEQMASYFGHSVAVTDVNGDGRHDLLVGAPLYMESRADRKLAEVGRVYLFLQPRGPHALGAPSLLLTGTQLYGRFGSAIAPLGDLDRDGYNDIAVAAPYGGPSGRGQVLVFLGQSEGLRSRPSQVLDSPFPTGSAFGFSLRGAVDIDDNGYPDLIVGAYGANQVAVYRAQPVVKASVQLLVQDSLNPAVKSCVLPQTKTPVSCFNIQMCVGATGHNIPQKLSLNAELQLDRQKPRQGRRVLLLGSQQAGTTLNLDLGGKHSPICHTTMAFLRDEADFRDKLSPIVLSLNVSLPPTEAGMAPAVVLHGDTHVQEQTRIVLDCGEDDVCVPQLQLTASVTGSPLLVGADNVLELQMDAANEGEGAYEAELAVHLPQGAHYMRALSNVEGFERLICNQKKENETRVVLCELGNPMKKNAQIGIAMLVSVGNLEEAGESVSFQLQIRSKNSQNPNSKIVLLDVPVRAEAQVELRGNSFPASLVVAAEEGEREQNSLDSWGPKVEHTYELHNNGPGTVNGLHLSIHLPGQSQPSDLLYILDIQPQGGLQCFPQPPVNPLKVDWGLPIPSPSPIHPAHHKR
Chain of human GPIIb/IIIa receptor (P08514 891-1039 partner): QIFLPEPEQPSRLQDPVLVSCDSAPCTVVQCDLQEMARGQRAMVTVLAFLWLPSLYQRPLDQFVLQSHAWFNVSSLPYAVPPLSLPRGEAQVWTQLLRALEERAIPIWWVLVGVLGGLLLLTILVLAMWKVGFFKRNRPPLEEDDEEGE
Chain of human GPIIb/IIIa receptor (P05106 27-788): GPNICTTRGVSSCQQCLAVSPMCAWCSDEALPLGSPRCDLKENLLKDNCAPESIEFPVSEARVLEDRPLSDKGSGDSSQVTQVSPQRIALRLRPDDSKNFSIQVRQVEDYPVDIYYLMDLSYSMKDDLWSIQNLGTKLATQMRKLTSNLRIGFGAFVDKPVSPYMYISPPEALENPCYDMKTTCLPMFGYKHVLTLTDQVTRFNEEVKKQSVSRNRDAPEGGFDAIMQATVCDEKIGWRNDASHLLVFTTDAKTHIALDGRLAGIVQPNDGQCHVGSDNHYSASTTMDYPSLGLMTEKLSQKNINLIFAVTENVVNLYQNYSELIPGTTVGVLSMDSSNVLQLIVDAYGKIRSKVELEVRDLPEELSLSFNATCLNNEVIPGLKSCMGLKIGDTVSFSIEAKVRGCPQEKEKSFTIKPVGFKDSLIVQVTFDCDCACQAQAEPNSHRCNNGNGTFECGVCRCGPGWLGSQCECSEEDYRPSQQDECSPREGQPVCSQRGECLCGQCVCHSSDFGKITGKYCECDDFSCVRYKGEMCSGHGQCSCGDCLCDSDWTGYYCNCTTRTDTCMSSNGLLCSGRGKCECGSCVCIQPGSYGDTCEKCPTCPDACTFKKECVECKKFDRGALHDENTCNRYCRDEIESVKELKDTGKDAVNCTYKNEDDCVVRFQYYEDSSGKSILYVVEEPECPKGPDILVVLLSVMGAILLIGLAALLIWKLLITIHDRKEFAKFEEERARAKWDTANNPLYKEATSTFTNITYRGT

The term IC50 denotes the concentration that inhibits the measured activity by half. As to `O=C(O)C[C@H](NC(=O)[C@@H]1CCCN(C(=O)CCC2CCNCC2)C1)c1ccc(OCCF)cc1` [Example 2, (3S)-3-[4-(2-Fluoroethoxy)phenyl]-3-[({(3R)-1-[3-(piperidin-4-yl)propanoyl]piperidin-3-yl}carbonyl)amino]propanoic acid], the IC50 under setting [1] came out at 29 nM and the IC50 under setting [2] was 29 nM. Take `O=C(O)C[C@H](NC(=O)[C@@H]1CCCN(C(=O)CCC2CCNCC2)C1)c1cc(F)cc(-c2ccc(OCCF)cc2)c1` [Example 17, (3S)-3-[5-Fluoro-4′-(2-fluoroethoxy)biphenyl-3-yl]-3-[({(3R)-1-[3-(piperidin-4-yl)propanoyl]piperidin-3-yl}carbonyl)amino]propanoic acid]: under setting [1], the IC50 worked out at 35 nM. `O=C(O)C[C@H](NC(=O)[C@@H]1CCCN(C(=O)CCC2CCNCC2)C1)c1cccc(OCCOCCOCCF)c1` [Example 4, (3S)-3-(3-{2-[2-(2-Fluoroethoxy)ethoxy]ethoxy}phenyl)-3-[({(3R)-1-[3-(piperidin-4-yl)propanoyl]piperidin-3-yl}carbonyl)amino]propanoic acid]: under setting [1], the IC50 is 84 nM.

For `O=C(O)C[C@H](NC(=O)[C@@H]1CCCN(C(=O)CCC2CCNCC2)C1)c1cncc(-c2cccc(OCCF)c2)c1` [Example 6, (3S)-3-{5-[3-(2-Fluoroethoxy)phenyl]pyridin-3-yl}-3-[({(3R)-1-[3-(piperidin-4-yl)propanoyl]piperidin-3-yl}carbonyl)amino]propanoic acid], the IC50 under setting [1] was 16 nM. Take `O=C(O)C[C@H](NC(=O)[C@@H]1CCCN(C(=O)CCC2CCNCC2)C1)c1cncc(CCc2cccc(OCCF)c2)c1` [Example 19, (3S)-3-(5-{2-[3-(2-Fluoroethoxy)phenyl]ethyl}pyridin-3-yl)-3-[({(3R)-1-[3-(piperidin-4-yl)propanoyl]piperidin-3-yl}carbonyl)amino]propanoic acid]: the IC50 under setting [1] was determined as 3 nM and the IC50 under setting [2] stood at 3 nM.

Take `O=C(O)C[C@H](NC(=O)[C@@H]1CCCN(C(=O)CCC2CCNCC2)C1)c1cncc(CCc2ccc(OCCF)cc2)c1` [Example 18, (3S)-3-(5-{2-[4-(2-Fluoroethoxy)phenyl]ethyl}pyridin-3-yl)-3-[({(3R)-1-[3-(piperidin-4-yl)propanoyl]piperidin-3-yl}carbonyl)amino]propanoic acid]: the IC50 came to 3 nM under setting [1] and 3 nM under setting [2]. With `N#Cc1cc(-c2cncc([C@H](CC(=O)O)NC(=O)[C@@H]3CCCN(C(=O)CCC4CCNCC4)C3)c2)ccc1F` [Example 9, (3S)-3-[5-(3-Cyano-4-fluorophenyl)pyridin-3-yl]-3-[({(3R)-1-[3-(piperidin-4-yl)propanoyl]piperidin-3-yl}carbonyl)amino]propanoic acid], the IC50 is 21 nM under setting [1] and 21 nM under setting [2]. Take `O=C(O)C[C@H](NC(=O)[C@@H]1CCCN(C(=O)CCC2CCNCC2)C1)c1cncc(-c2ccc(F)c([N+](=O)[O-])c2)c1` [Example 11, (3S)-3-[5-(4-Fluoro-3-nitrophenyl)pyridin-3-yl]-3-[({(3R)-1-[3-(piperidin-4-yl)propanoyl]piperidin-3-yl}carbonyl)amino]propanoic acid]: the IC50 under setting [1] stood at 14 nM. The same measure, in the same setting: as for `O=C(O)C[C@H](NC(=O)[C@@H]1CCCN(C(=O)CCC2CCNCC2)C1)c1cncc(C#Cc2cccc(OCCF)c2)c1` [Example 16, (3S)-3-(5-{[3-(2-Fluoroethoxy)phenyl]ethynyl}pyridin-3-yl)-3-[({(3R)-1-[3-(piperidin-4-yl)propanoyl]piperidin-3-yl}carbonyl)amino]propanoic acid], the figure is 6 nM; as for `O=C(O)C[C@H](NC(=O)[C@@H]1CCCN(C(=O)CCC2CCNCC2)C1)c1cncc(C#Cc2ccc(OCCF)cc2)c1` [Example 15, (3S)-3-(5-{[4-(2-Fluoroethoxy)phenyl]ethynyl}pyridin-3-yl)-3-[({(3R)-1-[3-(piperidin-4-yl)propanoyl]piperidin-3-yl}carbonyl)amino]propanoic acid], 5 nM. On the same count and under the same terms, as for `O=C(O)C[C@H](NC(=O)[C@@H]1CCCN(C(=O)CCC2CCNCC2)C1)c1cncc(C=Cc2cccc(OCCF)c2)c1` (mixture of isomers) [Example 20, (E/Z)(3S)-3-(5-{2-[3-(2-Fluoroethoxy)phenyl]ethenyl}pyridin-3-yl)-3-[({(3R)-1-[3-(piperidin-4-yl)propanoyl]piperidin-3-yl}carbonyl)amino]propanoic acid], the figure is 7 nM. On the same count and under the same terms, next, `N#Cc1ccc(COc2cncc([C@H](CC(=O)O)NC(=O)[C@@H]3CCCN(C(=O)CCC4CCNCC4)C3)c2)cc1F` [Example 13, (3S)-3-{5-[(4-Cyano-3-fluorobenzyl)oxy]pyridin-3-yl}-3-[({(3R)-1-[3-(piperidin-4-yl)propanoyl]piperidin-3-yl}carbonyl)amino]propanoic acid]: 7 nM.

On to `N#Cc1ccc([C@H](CC(=O)O)NC(=O)[C@@H]2CCCN(C(=O)CCC3CCNCC3)C2)cc1F` [Example 14, (3S)-3-(4-Cyano-3-fluorophenyl)-3-[({(3R)-1-[3-(piperidin-4-yl)propanoyl]piperidin-3-yl}carbonyl)amino]propanoic acid], for which, under setting [1], the IC50 was 15 nM.

Regarding `O=C(O)C[C@H](NC(=O)[C@@H]1CCCN(C(=O)CCC2CCNCC2)C1)c1cncc(OCCOCCOCCF)c1` [Example 5, (3S)-3-(5-{2-[2-(2-Fluoroethoxy)ethoxy]ethoxy}pyridine-3-yl)-3-[({(3R)-1-[3-(piperidin-4-yl)propanoyl]piperidin-3-yl}carbonyl)amino]propanoic acid], the IC50 under setting [1] came out at 16 nM.

Take `N#Cc1cc(COc2cncc([C@@H](CC(=O)O)NC(=O)[C@H]3CCCN(C(=O)CCC4CCNCC4)C3)c2)ccc1F` (stereo in doubt) [Example 12, (3R)-3-{5-[(3-Cyano-4-fluorobenzyl)oxy]pyridin-3-yl}-3-[({(3S)-1-[3-(piperidin-4-yl)propanoyl]piperidin-3-yl}carbonyl)amino]propanoic acid]: the IC50 under setting [1] came to 8 nM. As to `O=C(O)C[C@H](NC(=O)[C@@H]1CCCN(C(=O)CCC2CCNCC2)C1)c1cncc(-c2ccccc2OCCF)c1` [Example 8, (3S)-3-{5-[2-(2-Fluoroethoxy)phenyl]pyridin-3-yl}-3-[({(3R)-1-[3-(piperidin-4-yl)propanoyl]piperidin-3-yl}carbonyl)amino]propanoic acid], under setting [1], the IC50 was 14 nM. The same measure, in the same setting: next, `N#Cc1ccc(-c2cncc([C@H](CC(=O)O)NC(=O)[C@@H]3CCCN(C(=O)CCC4CCNCC4)C3)c2)cc1F` [Example 10, (3S)-3-[5-(4-Cyano-3-fluorophenyl)pyridin-3-yl]-3-[({(3R)-1-[3-(piperidin-4-yl)propanoyl]piperidin-3-yl}carbonyl)amino]propanoic acid]: 15 nM.
